Values after ≈ are worked out from the molar mass of the structure shown. “Also recorded” adds a separate entry of the source. Like-named read-outs stand apart in the source and are kept apart here.
Assays:
[1] = test system: C. neoformans FTase (CnFTase); conditions: Hast et al. 2011; cited from earlier work
C. neoformans [2] = conditions: cited from earlier work
[3] = test system: C. neoformans FTase (CnFTase); experiment: CnFTase activity assay, farnesylation of a fluorescent (dansylated) peptide, 1μMIC50; type: biochemical, Cryptococcus neoformans
Procedure: The library of 23 compounds contained leads with 60- to 150-fold enhanced ^1μMIC50 values.
CnFTase activity assay. The farnesyl transferase activity was measured by measuring the time dependence of the fluorescence emission intensity increase due to farnesylation of a dansylated peptide (Cassidy, P. B, et al., Methods Enzymol, 1995, 250, 30-43). Measurements were taken at room temperature in a 96-well black polystyrene, half area, flat bottom, non-binding surface plate using a SpectraMax M5e plate reader (excitation wavelength, 340 nm; emission wavelength 525 nm; emission high-pass filter, 455 nm). […] Final CnFTase concentrations (from 5× or 10× stocks in 20 mM Tris-HCl pH7.5, 20 mM NaCl, 5 μM ZnCl2, 1 mM TCEP, 1 mg/mL BSA): A, 20 nM; B: 4.4, 6.7, 10 nM triplets. […] For experiments that included phosphate, pH 7.5 stock was added to the desired final concentration. Data was analyzed using Python scripts for the Biomolecular Computing (BMC) package, included in the Dryad electronic repository. Data for determining ^1μMIC50 values (condition A) was collected in triplicate. Initial rates, vo, were extracted by fitting a straight line to the initial to tmax seconds of the reaction progress curves, where tmax values were selected by inspection and entered into curator tables for automated analysis. 1μMIC50 were determined by fitting a single-site Langmuir ligand-binding isotherm to the dependence of vo on inhibitor concentration (2, see below). All other experiments (condition B) […] used three different CnFTase concentrations, collecting progress curves as a function of FPP, inhibitor, and phosphate concentrations. The resulting triplet of progress curves was used to extract vo values automatically by minimizing
Single-site binding isotherms. Signals, S, resulting from a binding reaction were fit to
where α and β are the baselines associated with the apo-protein and its ligand complex, respectively, and y fractional occupancy of the binding site
If x is an inhibitor concentration, then IC50=Ka^−1. For Michaelis-Menten analysis 2 is reduced to a standard form (Bahar, I.; Jernigan, R. L.; Dill, K. A. Protein Actions, principles & modeling. Garland Science: 2017) with S=vo (initial rates), α=0, β=Vmax (maximal velocity), and KM=Ka^−1 (substrate dissociation constant). In general, baseline signals, σ, (α or β) can be constant, or linear functions of ligand concentration x

CnFTase = CnFTase (Cryptococcus neoformans, UniProt J9VSJ6+T2BPA1); experiment: CnFTase steady-state kinetics fit to competitive/uncompetitive/mixed inhibition models; conditions: for inhibition mode: with respect to FPP
Chain of CnFTase (J9VSJ6 entry or part of it): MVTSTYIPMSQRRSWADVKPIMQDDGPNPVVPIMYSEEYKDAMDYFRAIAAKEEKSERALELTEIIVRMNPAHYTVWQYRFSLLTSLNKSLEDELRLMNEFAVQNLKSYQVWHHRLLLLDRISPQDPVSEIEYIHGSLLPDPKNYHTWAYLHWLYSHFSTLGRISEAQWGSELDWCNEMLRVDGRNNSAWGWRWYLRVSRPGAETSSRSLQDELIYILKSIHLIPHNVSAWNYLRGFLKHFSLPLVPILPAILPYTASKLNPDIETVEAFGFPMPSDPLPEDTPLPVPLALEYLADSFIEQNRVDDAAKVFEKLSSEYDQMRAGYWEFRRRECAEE
Chain of CnFTase (T2BPA1 entry or part of it): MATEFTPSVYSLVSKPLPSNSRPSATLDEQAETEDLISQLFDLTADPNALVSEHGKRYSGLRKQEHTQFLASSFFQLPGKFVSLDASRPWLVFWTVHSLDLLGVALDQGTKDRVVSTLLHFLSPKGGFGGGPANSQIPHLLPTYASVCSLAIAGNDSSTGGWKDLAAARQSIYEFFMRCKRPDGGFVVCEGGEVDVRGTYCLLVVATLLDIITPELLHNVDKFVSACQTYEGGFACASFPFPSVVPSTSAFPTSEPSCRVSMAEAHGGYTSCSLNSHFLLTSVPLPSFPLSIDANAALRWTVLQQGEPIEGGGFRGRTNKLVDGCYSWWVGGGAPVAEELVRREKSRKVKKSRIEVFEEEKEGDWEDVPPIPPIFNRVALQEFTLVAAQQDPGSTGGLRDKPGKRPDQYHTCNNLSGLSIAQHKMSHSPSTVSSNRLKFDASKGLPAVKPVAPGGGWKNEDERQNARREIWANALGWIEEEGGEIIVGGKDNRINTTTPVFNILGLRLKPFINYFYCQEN
Procedure: (§2) CnFTase activity assay. […] Final CnFTase concentrations (from 5× or 10× stocks in 20 mM Tris-HCl pH7.5, 20 mM NaCl, 5 μM ZnCl2, 1 mM TCEP, 1 mg/mL BSA): A, 20 nM; B: 4.4, 6.7, 10 nM triplets. […] For experiments that included phosphate, pH 7.5 stock was added to the desired final concentration. […] Data for determining ^1μMIC50 values (condition A) was collected in triplicate. Initial rates, vo, were extracted by fitting a straight line to the initial to tmax seconds of the reaction progress curves, where tmax values were selected by inspection and entered into curator tables for automated analysis. 1μMIC50 were determined by fitting a single-site Langmuir ligand-binding isotherm to the dependence of vo on inhibitor concentration (2, see below). All other experiments (condition B) all other experiments (condition B) used three different CnFTase concentrations, collecting progress curves as a function of FPP, inhibitor, and phosphate concentrations. The resulting triplet of progress curves was used to extract vo values automatically by minimizing
where χk^2 is the squared difference of the calculated and observed emissions in the k^th iteration of the minimizer, fi the initial fraction (constrained in the interval [0.5,1]) of the T time points of the progress curve, Di the dilution factor of the i^th progress curve (0.44:0.66:1 for condition B), S0ik the fluorescence emission intensity of the i^th progress curve at t=0 at the k^th (this value is refined individually using a one-dimensional golden section search^52 with fi and v0 values of the k−1 iteration), and ^obsSji, the observed intensity of the i^th progress curve at the j^th time point. The target function 1 is minimized using conjugate gradients with vo and fi as the degrees of freedom. The resulting rates were then fit to binding polynomials describing the inhibition mechanism (5-13, see below).
Binding polynomials for inhibition models. The initial steady-state rates of a reaction involving a single-substrate x, and inhibitor y are given by
Three binding polynomials were used:
where Ka, KC, and KU are the affinities of the enzyme for substrate, competitive inhibitor, and uncompetitive inhibitor, respectively.
Solvers for non-ideal conditions. In non-ideal conditions 9 is false, and the total protein concentration needs to be included as a degree of freedom, requiring the roots of the following multivariate polynomial to be found (see below for derivation):

C. neoformans [4] = experiment: Minimum inhibitory concentration (MIC): disc diffusion and broth microdilution
Procedure: Antifungal activity was determined by measuring minimum inhibitory concentrations (MIC) of C. neoformans by two methods: a solid medium disc diffusion assay and broth microdilution assay.
Disc diffusion assay. Overnight cultures of C. neoformans (about 18 hours) were normalized to OD600 0.6, diluted 1/10, and 200 μL of each sample were spread onto either a YPD or YPGal (yeast extract-peptone medium with 3% galactose) plate using sterile glass beads. After drying, 10 μL of compound or solvent control (DMSO) was added to sterile 6 mm filter discs on each plate. Plates were incubated for 48 hours at 37° C.
Minimum inhibitory concentration (MIC) assays. C. neoformans: Overnight cultures (˜18 h) of C. neoformans strains incubated in YPD medium were diluted to 500 cells/ml in RPMI medium buffered with MOPS. Cells were aliquoted (200 μL/well) in black-wall, clear-bottom 96-wells plates (Greiner). Compound stock solutions in DMSO ranged from 9 μM to 20 mM, and added to 200 μL cell suspension aliquoted in 96-well plates. Final aqueous concentrations ranged from 200 μM to 0.09 μM, limiting DMSO to 1%. After 48-hr incubation at 37° C. or 30° C. for 48 h, 10% AlamarBlue (BioRad) was added. The end-point fluorescence intensity of reduced AlamarBlue was measured using a fluorescence plate reader (FLUORStar Optima plate reader) at the time point the indicator turned from blue to pink in healthy control cells.^51 Assays were performed in duplicate.

[5] = test system: J774A.1 macrophage-like murine cells; conditions: mouse, 24 h
Procedure: Macrophage cytotoxicity assays. […] 2 μL of the serially diluted compound were transferred to a 96-well plate containing 200 μL DMEM (100× dilution). J774A.1, a macrophage-like murine cell line, was incubated in DMEM (Dulbecco's Modified Eagle Medium, Sigma-Aldrich) to 70% confluency, harvested, washed in PBS, then transferred to black, clear-bottom 96-well plates (Greiner) at 10^5 cells/well. Plates were incubated overnight at 37° C. and 5% CO2. The macrophage medium covering the J774A.1 monolayer was replaced with 100 μL of DMEM containing the serially diluted inhibitors (50× dilution) and incubated for 24 h at 37° C. and 5% CO2. Macrophage viability was assessed at 24 h by the addition of 10% AlamarBlue and incubating for 3 h at 37° C. and 5% CO2 prior to fluorescence measurement (FLUORStar Optima plate reader). Assays were performed in duplicate.

[6] = test system: C. neoformans strain over-expressing CnFTase (pGAL7-RAM1); experiment: Disc diffusion assay with galactose-inducible RAM1 over-expression; type: cell-based, Cryptococcus neoformans; conditions: galactose induced; discs with 10 μL of 20 mM
Procedure: (§1) FIG. 3. CnFTase is the in vivo target of 2f. (A) Ras cellular mislocalization, assessed by epifluorescent microscopy (1000×). Bar=10 μm. Top. […] Bottom. Control patterns of Ras localization with wild-type (left) and ram1Δ deletion (right) strains expressing mCherry-Ras1. […] A C. neoformans strain transformed with the galactose-regulated pGAL7-RAM1 over-expression construct was incubated with glucose (uninduced, bottom), and galactose (induced, top). Antifungal activity was assessed by the relative size of the zone of fungal growth inhibition surrounding sterile discs impregnated with 10 μL of 20 mM 2f dissolved in DMSO (bottom disk) or DMSO alone (top disc).
Molecular Biology. […] To induce C. neoformans mating, strains of opposite mating types were co-cultured on MS medium at 25° C. for seven days (Murashige, T, et al., Physiol Plantarum, 1962, 15, 473-497). A C. neoformans strain with a galactose-inducible RAM1 allele (CBN482) was similarly created with primers designed to create an overlap construct comprising the C. neoformans RAM1 5′ sequence-neomycin resistance cassette-GAL7 promoter-RAM1 coding sequence (FIG. 9) to precisely replace the RAM1 promoter with the GAL7 galactose inducible when introduced into the H99 genome by biolistic transformation.
Disc diffusion assay. […]

C. neoformans biofilms = experiment: Biofilm inhibition; type: cell-based, Cryptococcus neoformans
[7] = target: CnFTase (C. neoformans farnesyl transferase, α/β heterodimer) (Cryptococcus neoformans, UniProt J9VSJ6+T2BPA1); experiment: CnFTase activity assay: farnesylation of a dansylated (fluorescent) peptide, inhibitor concentration giving half-maximal enzyme rates at 1 μM FPP (1μMIC50); conditions: read-out: CnFTase IC50 (1μMIC50), condition A: 20 nM CnFTase, dansyl-GCVVM 0.62 μM, Tris-HCl pH 7.5, ZnCl2 12.5 μM, 2.5% DMSO, room temperature, triplicate
Chain of CnFTase (C. neoformans farnesyl transferase, α/β heterodimer) (J9VSJ6 entry or part of it): as the sequence (J9VSJ6 entry or part of it) above
Chain of CnFTase (C. neoformans farnesyl transferase, α/β heterodimer) (T2BPA1 entry or part of it): as the sequence (T2BPA1 entry or part of it) above
Procedure: as §2
If x is an inhibitor concentration, then IC50=Ka^−1. […] In general, baseline signals, σ, (α or β) can be constant, or linear functions of ligand concentration x

[8] = test system: Gfp-Ras1 localization in C. neoformans; experiment: Ras1 cellular localization by fluorescent microscopy; type: cell-based, Cryptococcus neoformans; conditions: sub-lethal concentrations; 0.78 μM (sub-inhibitory)
Procedure: as §1
Compound 2f inhibited FTase activity in vivo. […] Both effects are consistent with CnFTase being the target of Compound 2f, as expected.
Microscopy. […] A drug-free control sample contained 1% DMSO. Ras1 localization in a ram1Δ mutant strain was determined in a similar manner: a ram1Δ mutant and wild-type strain, each expressing mCherry-Ras1 under a constitutive promoter (CBN121 and SKE17) were incubated overnight in YPD medium at 30° C., diluted to OD600 0.1 in YPD, then incubated for 24 hours at 37° C. All cells were visualized and imaged by fluorescent microscopy at 1000× magnification using a Zeiss Imager A1 microscope and Zeiss Axio-Cam MRM digital camera. […]

mammalian FTase = mammalian FTase (Homo sapiens, UniProt P49354+P49356); experiment: Inhibition of mammalian FTase; type: biochemical
Chain of mammalian FTase (P49356 whole entry, one chain of several): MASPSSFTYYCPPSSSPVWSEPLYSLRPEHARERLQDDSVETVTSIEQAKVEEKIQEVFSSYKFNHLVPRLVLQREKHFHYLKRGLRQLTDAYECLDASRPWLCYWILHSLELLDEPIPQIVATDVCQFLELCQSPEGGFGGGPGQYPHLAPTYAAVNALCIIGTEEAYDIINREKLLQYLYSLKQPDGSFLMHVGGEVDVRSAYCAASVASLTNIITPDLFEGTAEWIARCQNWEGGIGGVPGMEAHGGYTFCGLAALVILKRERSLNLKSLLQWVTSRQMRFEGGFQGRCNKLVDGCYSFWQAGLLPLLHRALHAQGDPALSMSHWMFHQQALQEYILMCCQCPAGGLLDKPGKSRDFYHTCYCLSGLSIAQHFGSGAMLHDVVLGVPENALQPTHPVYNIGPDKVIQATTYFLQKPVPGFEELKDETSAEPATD

[9] = test system: Schizosaccharomyces pombe; experiment: S. pombe MIC assay (efflux effects); conditions: for MIC: Schizosaccharomyces pombe

SMILES: N#Cc1ccc(Cn2cncc2CN2CCN(c3cccc(Cl)c3)C(=O)C2)cc1 [L-778,123]
- inhibition of C. neoformans FTase (CnFTase) [1]: modest inhibition
- antifungal activity (C. neoformans [2]; Hast et al. 2011): did not have antifungal activity

SMILES: OC(Cn1cncn1)(Cn1cncn1)c1ccc(F)cc1F [fluconazole]
- MIC (C. neoformans [2]; C. neoformans, Bongomin et al. 2018): ≥ 8 µg/mL

SMILES: CCCC[C@H]1CN(c2cccc(OC(F)(F)F)c2)C(=O)CN1Cc1cncn1Cc1ccc(C#N)c(F)c1 [Compound 2q, (S)-4-((5-((2-Butyl-5-oxo-4-(3-(trifluoromethoxy)-phenyl)piperazin-1-yl)methyl)-1H-imidazol-1-yl)methyl)-2-fluorobenzonitrile]
- improvement of 1μMIC50 over L-778,123 ([3]; 1 μM FPP, relative to L-778,123): 150 fold
- change of affinity relative to the comparator analogue (cf.) ([3]; pairwise comparison of analogues differing in one R group): 9 fold
- Ki (CnFTase): 4 nM
- improvement of uncompetitive binding affinity in the H state (CnFTase; H state vs L state): ~10%
- inhibition mode (CnFTase): purely uncompetitive inhibitor
- antifungal activity (C. neoformans [4]; C. neoformans): barely exhibited antifungal activity

SMILES: CCCC[C@H]1CN(c2cccc(OC(F)(F)F)c2)C(=O)CN1Cc1cncn1Cc1ccc(Br)cc1 [Compound 2f, (S)-4-((1-(4-Bromobenzyl)-1H-imidazol-5-yl)methyl)-5-butyl-1-(3-(trifluoromethoxy)phenyl)piperazin-2-one]
- MIC [5]: 200 µM (≈ 113 µg/mL)
- effect of CnFTase (Ram1) over-expression on antifungal activity [6]: negates 2f antifungal activity; also recorded: negated antifungal activity
- biofilm inhibition (C. neoformans biofilms): inhibits C. neoformans biofilms
- improvement of competitive affinity in the H state (CnFTase; H state vs L state): ~100 fold
- competitive affinity better than the uncompetitive value (CnFTase; H state, 10 mM phosphate): ~170 fold
- Ki (CnFTase; HKU, uncompetitive inhibitor affinity (dissociation constant), H state, 10 mM phosphate (H state)): 500 nM
- Ki (CnFTase; LKU, uncompetitive inhibitor affinity (dissociation constant), L state, absence of phosphate (L state)): 750 nM
- Ki (CnFTase; read-out: HKC, competitive inhibitor affinity (dissociation constant), H state, 10 mM phosphate (H state)): 3 nM
- Ki (CnFTase; read-out: LKC, competitive inhibitor affinity (dissociation constant), L state, absence of phosphate (L state)): 320 nM
- inhibition mode (CnFTase): mixture of two binding modes: uncompetitive like Compound 2q, and a competitive mode that displaces FPP
- IC50 [7]: 190 ± 60 nM
- Gfp-Ras1 localization [8]: remains in the cytoplasm; also recorded: does not localize to the plasma membrane
- IC50 on mammalian FTase, worse than on the fungal enzyme (mammalian FTase): about 30 fold
- MIC improvement in efflux-defective strain ([9]; MJ-1682 vs wild-type): eight-fold
- MIC ([9]; efflux-defective strain MJ-1682): 1.5 µM (≈ 0.848 µg/mL)
- MIC ([9]; wild-type S. pombe): 12.5 µM (≈ 7.07 µg/mL)
- MIC (C. neoformans [4]; Cryptococcus neoformans): 3 to 6 µM (≈ 1.7 to 3.39 µg/mL)

Reference: patent US20250114350A1, “INHIBITORS OF […] AS ANTIFUNGAL AGENTS” (Regents of the University of Minnesota, priority 2023, published 2025)
